Laboratory results as given in ChEMBL document CHEMBL3124828, “A 2,6,9-hetero-trisubstituted purine inhibitor exhibits potent biological effects against multiple myeloma cells” (Bioorg Med Chem, 2013).
Active and inactive are the calls of the source. No cut-off for these calls is given here.

Tests used:
[1] = system: MDA-MB-468; assay: Cytotoxicity against human MDA-MB-468 cells after 72 hrs by MTS assay; assay type: functional, cell-based
[2] = molecular target: Signal transducer and activator of transcription 3 (Homo sapiens) (UniProt P40763); assay: Displacement of FAM-GpYLPQTV-NH2 from full-length Stat3 SH2 domain (unknown origin) up to 400 uM by fluorescence polarization
[3] = system: OCI-AML2; assay: Cytotoxicity against human OCI-AML2 cells after 72 hrs by MTS assay; assay type: functional, cell-based
[4] = system: DU-145; assay: Cytotoxicity against human DU145 cells after 72 hrs by MTS assay; assay type: functional, cell-based
[5] = Induction of apoptosis in human XG6 cells assessed as viable cells at 15 uM after 48 hrs by annexinV/propidium iodide staining (reference value: 83.3%); assay type: functional; details: XG6, 48 h, read-out: Activity
[6] = system: JJN-3; assay: Induction of apoptosis in human JJN-3 cells assessed as late apoptotic cells at 15 uM after 48 hrs by annexinV/propidium iodide staining (reference value: 9.59%); assay type: functional
[7] = system: JJN-3; assay: Induction of apoptosis in human JJN-3 cells assessed as viable cells at 15 uM after 48 hrs by annexinV/propidium iodide staining (reference value: 75.9%); assay type: functional; details: JJN-3, 48 h, read-out: Activity
[8] = Induction of apoptosis in human XG6 cells assessed as early apoptotic cells at 15 uM after 48 hrs by annexinV/propidium iodide staining (reference value: 8.62%); assay type: functional
[9] = Induction of apoptosis in human XG6 cells assessed as late apoptotic cells at 15 uM after 48 hrs by annexinV/propidium iodide staining (reference value: 7.78%); assay type: functional
[10] = system: JJN-3; assay: Induction of apoptosis in human JJN-3 cells assessed as early apoptotic cells at 15 uM after 48 hrs by annexinV/propidium iodide staining (reference value: 13.3%); assay type: functional

Sequence of Signal transducer and activator of transcription 3 (Homo sapiens) (P40763 whole entry, the tested form may be a part): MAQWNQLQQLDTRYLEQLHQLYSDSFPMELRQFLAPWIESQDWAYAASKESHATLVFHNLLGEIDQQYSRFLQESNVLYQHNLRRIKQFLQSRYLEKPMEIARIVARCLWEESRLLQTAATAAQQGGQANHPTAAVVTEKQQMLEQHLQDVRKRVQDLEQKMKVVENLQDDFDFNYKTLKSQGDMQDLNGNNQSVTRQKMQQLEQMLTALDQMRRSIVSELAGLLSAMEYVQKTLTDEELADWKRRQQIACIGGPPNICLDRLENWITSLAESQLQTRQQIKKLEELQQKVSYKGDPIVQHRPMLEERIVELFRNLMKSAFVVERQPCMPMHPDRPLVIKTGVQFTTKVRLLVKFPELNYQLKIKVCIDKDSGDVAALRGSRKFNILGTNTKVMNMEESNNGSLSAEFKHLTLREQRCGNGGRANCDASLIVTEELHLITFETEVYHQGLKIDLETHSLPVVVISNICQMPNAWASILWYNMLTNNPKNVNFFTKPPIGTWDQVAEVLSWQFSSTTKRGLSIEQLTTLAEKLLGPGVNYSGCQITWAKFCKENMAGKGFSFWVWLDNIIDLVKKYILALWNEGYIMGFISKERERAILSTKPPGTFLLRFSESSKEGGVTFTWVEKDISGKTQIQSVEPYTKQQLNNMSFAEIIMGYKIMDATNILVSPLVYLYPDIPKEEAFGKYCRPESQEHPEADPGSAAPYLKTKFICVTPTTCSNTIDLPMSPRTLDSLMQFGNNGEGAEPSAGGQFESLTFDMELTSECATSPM

| SMILES | Activity [1] | Activity [3] | Activity [4] | other results |
| --- | --- | --- | --- | --- |
| Fc1ccc(Nc2nc(NCc3ccc(C4CCCCC4)cc3)nc3c2ncn3CCc2nnn[nH]2)cc1 | inactive | inactive | inactive | inhibition [2]: inactive |
| CC(C)CCNc1nc(NCc2ccc(C3CCCCC3)cc2)nc2c1ncn2CC(=O)OCOC(=O)C(C)(C)C | inactive | inactive | inactive |  |
| CC(C)CCNc1nc(NCc2ccc(C3CCCCC3)cc2)nc2c1ncn2CCc1nnn[nH]1 | inactive | inactive | inactive |  |
| CCOC(=O)Cn1cnc2c(NCC(C)C)nc(NCc3ccc(C4CCCCC4)cc3)nc21 | inactive | inactive | inactive |  |
| CC(=O)OCOC(=O)Cn1cnc2c(Oc3ccc([N+](=O)[O-])cc3)nc(NCc3ccc(C4CCCCC4)cc3)nc21 | inactive | inactive | inactive |  |
| c1coc(CNc2nc(NCc3ccc(C4CCCCC4)cc3)nc3c2ncn3CCc2nnn[nH]2)c1 | inactive | inactive | inactive | inhibition [2]: inactive |
| c1cc(C2CCCCC2)ccc1CNc1nc(N2CCOCC2)c2ncn(CCc3nnn[nH]3)c2n1 | inactive | inactive | inactive |  |
| NS(=O)(=O)OCCn1cnc2c(NCc3ccco3)nc(NCc3ccc(C4CCCCC4)cc3)nc21 | inactive | inactive | inactive |  |
| CC(=O)OCOC(=O)Cn1cnc2c(NCc3ccco3)nc(NCc3ccc(C4CCCCC4)cc3)nc21 | inactive | inactive | inactive |  |
| N[C@@H](Cc1ccc(N(CCCl)CCCl)cc1)C(=O)O [MELPHALAN] |  |  |  | viability at 15 µM [5]: 30.8%; Activity [6]: 23.7%; viability at 15 µM [7]: 54.5%; Activity [8]: 34%; Activity [9]: 34.8%; Activity [10]: 19.3% |
| CC(=O)OCOC(=O)Cn1cnc2c(NCC(C)C)nc(NCc3ccc(C4CCCCC4)cc3)nc21 | inactive | inactive | inactive |  |
| c1cc(C2CCCCC2)ccc1CNc1nc(NC2CCCC2)c2ncn(CCc3nnn[nH]3)c2n1 | inactive | inactive | inactive |  |
| CC(=O)OCOC(=O)Cn1cnc2c(NCCC(C)C)nc(NCc3ccc(C4CCCCC4)cc3)nc21 | inactive | inactive | inactive |  |
| CCOC(=O)Cn1cnc2c(NCc3ccco3)nc(NCc3ccc(C4CCCCC4)cc3)nc21 | inactive | inactive | inactive |  |
| CC(C)CCNc1nc(NCc2ccc(C3CCCCC3)cc2)nc2c1ncn2CCOS(N)(=O)=O | inactive | inactive | inactive |  |
| CCOC(=O)Cn1cnc2c(NCCC(C)C)nc(NCc3ccc(C4CCCCC4)cc3)nc21 | inactive | inactive | inactive |  |
| CCOC(=O)Cn1cnc2c(Nc3ccc(F)cc3)nc(NCc3ccc(C4CCCCC4)cc3)nc21 | inactive | inactive | inactive | inhibition [2]: inactive |
| NS(=O)(=O)OCCn1cnc2c(Oc3ccc([N+](=O)[O-])cc3)nc(NCc3ccc(C4CCCCC4)cc3)nc21 | inactive | inactive | inactive |  |
| CC(C)CNc1nc(NCc2ccc(C3CCCCC3)cc2)nc2c1ncn2CCOS(N)(=O)=O | inactive | inactive | inactive |  |
| CC(=O)OCOC(=O)Cn1cnc2c(Nc3ccc(F)cc3)nc(NCc3ccc(C4CCCCC4)cc3)nc21 | inactive | inactive | inactive | inhibition [2]: inactive |

| SMILES | Activity [1] | Activity [3] | Activity [4] | other results |
| --- | --- | --- | --- | --- |
| NS(=O)(=O)OCCn1cnc2c(N3CCOCC3)nc(NCc3ccc(C4CCCCC4)cc3)nc21 | inactive | inactive | inactive |  |
| CC(C)(C)C(=O)OCOC(=O)Cn1cnc2c(N3CCOCC3)nc(NC(=O)C3CCCCC3)nc21 | inactive | inactive | inactive |  |
| CCOC(=O)Cn1cnc2c(NC3CCCC3)nc(NCc3ccc(C4CCCCC4)cc3)nc21 | inactive | inactive | inactive |  |
| CC(=O)OCOC(=O)Cn1cnc2c(N3CCOCC3)nc(NCc3ccc(C4CCCCC4)cc3)nc21 | inactive | inactive | inactive |  |
| O=C(Nc1nc(N2CCOCC2)c2ncn(CCc3nnn[nH]3)c2n1)C1CCCCC1 | inactive | inactive | inactive |  |
| CC(C)(C)C(=O)OCOC(=O)Cn1cnc2c(NCc3ccco3)nc(NCc3ccc(C4CCCCC4)cc3)nc21 | inactive | inactive | inactive |  |
| CC(=O)OCOC(=O)Cn1cnc2c(NC3CCCC3)nc(NCc3ccc(C4CCCCC4)cc3)nc21 | inactive | inactive | inactive |  |
| CC(C)(C)C(=O)OCOC(=O)Cn1cnc2c(Oc3ccc([N+](=O)[O-])cc3)nc(NCc3ccc(C4CCCCC4)cc3)nc21 | inactive | inactive | inactive |  |
| CCOC(=O)Cn1cnc2c(N3CCOCC3)nc(NCc3ccc(C4CCCCC4)cc3)nc21 | inactive | inactive | inactive |  |
| CC(=O)OCOC(=O)Cn1cnc2c(N3CCOCC3)nc(NC(=O)C3CCCCC3)nc21 | inactive | inactive | inactive |  |
| CCOC(=O)Cn1cnc2c(N3CCOCC3)nc(NC(=O)C3CCCCC3)nc21 | inactive | inactive | inactive |  |
| CC(C)(C)C(=O)OCOC(=O)Cn1cnc2c(Nc3ccc(F)cc3)nc(NCc3ccc(C4CCCCC4)cc3)nc21 | inactive | inactive | inactive | inhibition [2]: inactive |
| CC(C)(C)C(=O)OCOC(=O)Cn1cnc2c(N3CCOCC3)nc(NCc3ccc(C4CCCCC4)cc3)nc21 | inactive | inactive | inactive |  |
| CC(C)CNc1nc(NCc2ccc(C3CCCCC3)cc2)nc2c1ncn2CC(=O)OCOC(=O)C(C)(C)C | inactive | inactive | inactive |  |
| NS(=O)(=O)OCCn1cnc2c(NC3CCCC3)nc(NCc3ccc(C4CCCCC4)cc3)nc21 | inactive | inactive | inactive |  |
| CC(C)(C)C(=O)OCOC(=O)Cn1cnc2c(NC3CCCC3)nc(NCc3ccc(C4CCCCC4)cc3)nc21 | inactive | inactive | inactive |  |
| CC(C)CNc1nc(NCc2ccc(C3CCCCC3)cc2)nc2c1ncn2CCc1nnn[nH]1 | inactive | inactive | inactive |  |
| CCOC(=O)Cn1cnc2c(Oc3ccc([N+](=O)[O-])cc3)nc(NCc3ccc(C4CCCCC4)cc3)nc21 | inactive | inactive | inactive |  |
| O=[N+]([O-])c1ccc(Oc2nc(NCc3ccc(C4CCCCC4)cc3)nc3c2ncn3CCc2nnn[nH]2)cc1 | inactive | inactive | inactive |  |
| NS(=O)(=O)OCCn1cnc2c(N3CCOCC3)nc(NC(=O)C3CCCCC3)nc21 | inactive | inactive | inactive | inhibition [2]: inactive |
